Entries after “also recorded” stand apart in the source; their conditions may differ.

Data set [1] deals with wound healing response (granulation tissue, neovascularization) in F-ZC. Description: Fibrin Z-chamber (F-ZC) wound healing assay, systemic SU5416 treatment. It counts as in vivo, Fischer 344 rats. To be noted: SUGEN 5416 20 mg/kg, control about 45, p=0.0009.
For data set [2], the system named is tumor cells embedded in fibrin gel (T-ZC). In words: Tumor cell-containing chambers (T-ZC) implanted in animals, systemic SUGEN 5416 treatment. It counts as in vivo. The method, then: A tumor cell chamber, or tumor Z-chamber (T-ZC) is prepared by adding tumor cells to the fibrinogen solution before adding the solution to the chamber. The tumor cells are embedded in fibrin gel. Implantation is accomplished by making two 2 cm long incisions on the backs of the animals, followed by making blunt dissections on both sides to establish a pocket in the subcutaneous space. The chambers are inserted into these pockets. Clips are used to close the incision in rats and sutures are used for mice. A topical antibiotic, such as that sold under the registered trademark NEOSPORIN® by Glaxo-Wellcome, Inc., is applied over the incision. To harvest the chambers, a long incision is made on the backs of the animals. The surrounding fascia is observed and noted. The chambers are pushed from outside the animal and pulled out. Pictures are taken at this stage to observe differences, if any, between tissue within and encompassing the chamber and the surrounding tissue. The mesh and issue agglomerated thereon are cut from the chamber with scalpel (preferably a #11 blade) and then processed in accordance with a desired analysis approach.

Data set [3] relates to wound healing response (granulation tissue, neovascularization) in F-ZC. In words: Fibrin Z-chamber (F-ZC) wound healing assay, systemic SU5416 treatment. In kind it is in vivo, Fischer 344 rats. To be noted: for residual D-dimer retention: SU5416 vs control (FIG. 16); for body weight loss: SU5416 20 mg/kg, F-ZC implantation, 10-12 days, vs control (FIG. 13). The method, then:
(§1) Schedule and Dose of Drug Administration.
Fibrin Z-Chambers (F-ZC): In accordance with the present invention, F-ZC were employed in a fibrin gel based in vivo assay. In F-ZC, fibrinogen and thrombin are added to a dual porous chamber through a port and chambers are then implanted in the subcutaneous tissue of the rats and harvested at day 12 post-implantation to assess the wound healing response generated due to presence of fibrin. These chambers are constructed from customized PLEXIGLAS® rings with internal diameter of 10 mm and have an access port drilled on the side. The two open surfaces are covered by nylon mesh (pore size 180 microns, # NY8H04700, Millipore, Mass.) glued to the rings. Fibrinogen (# 341578, CalBiochem, La Jolla, Calif.) was prepared in DMEM (# 11995-065, Gibco BRL, Rockville, Md.) at a concentration of 4 mg/ml and was converted to fibrin by addition of thrombin (#605160, CalBiochem, La Jolla, Calif.) inside the chambers.
Fischer 344 rats were anesthetized, hair removed using the clippers and the surface was surgically prepared. Two small midline skin incisions were made in the dorsal region about 4 cm apart. Fascia was blunt dissected and small pockets were created on both sides along the midline incision. Thus, four F-ZCs were implanted per animal.
Quantitation of Immunohistochemistry. Microvessel density (MVD) was calculated as described by Weidner (Weidner, N., et al., J Natl Cancer Inst (1992) 84(24):1875-87). Briefly, three hot spots or areas with highest visible blood vessels density (marked by the vessel marker) per sample section were selected and number of blood vessels counted at a high power field (400×). The data was then pooled for the control and treated tissues to arrive at the mean values for each group. Collagen was semi-quantitatively estimated on a scale of 0-4. Zero was described as negligible staining, 1 as weak, 2 as moderate, 3 as strong and 4 as complete staining as observed in dermis.
D-Dimer Measurements. The MINIQUANT™ D-Dimer (Cat # 1447, Biopool AB of Umea, Sweden) assay was used to measure residual D-Dimer in the chamber content lysates generated as detailed above. […] The measurements were carried out in duplicate. Each measurement is from pooled tissue for the treatment and control groups.

A further data set has as its system TGF β1. Description: TGF β1 ELISA on F-ZC tissue lysates. In kind it is in vivo, Fischer 344 rats. The procedure: as §1
TGF β1 ELISA. Active TGF β1 ELISA was carried out in triplicate using DUOSET® kit (DY240, Genzyme Corporation, Cambridge, Mass.) as described previously (Danielpour, D., J Immunol Methods (1993) 158(1):17-25) with tissue lysates from chamber contents generated as detailed above. Latent form of […] was converted to immunoreactive form to ascertain total […] content. The data is shown as pg per mg of protein in the tissues.
For orientation: ELISA stands for enzyme-linked immunosorbent assay.

Data set [4] has as its system wound healing response (granulation tissue) in fibrin-containing chambers. Description: F-ZC wound healing response with chamber administration of angiostatin. It counts as in vivo. The procedure: FIGS. 20A and 20B are photographs showing gross examination of fibrin-containing chambers of the present invention in which angiostatin was administered in laboratory animals in accordance with techniques described herein above for Laboratory Examples 1-9. […] Fibrin is inherently pale yellow in color and lack of blood vessels in angiostatin treated chambers results in the paler appearance of the chambers.
FIGS. 20C and 20D are photomicrographs showing depth (represented by line with arrowheads at each end) of granulation tissue developed inside fibrin-containing chambers of the present invention. Depth granulation was used as a measure for the healing response.
Scale=depth of granulation tissue (×10 microns).

Setting [5] is: Table 1, SU5416 vs control, n = 10.

Consider `Cc1cc(C)c(C=C2C(=O)Nc3ccccc32)[nH]1` [SU5416, 3-(2,4-Dimethylpyrrol-5-yl)methylene-2-indolinone], for which the “average MVD at 200× magnification” value in data set [1] is “about 30”. Moreover, the body weight loss result is listed as “no significant body weight loss; also recorded: no significant body weight lost” in data set [2] (SUGEN 5416 20 mg/kg systemic, T-ZC implantation, vs control animals (FIG. 9), 20 mg/kg); “maintained their pre-treatment weights” in data set [3] (20 mg/kg); “no significant body weight loss” in data set [3] (listed as SUGEN 5416). For the same compound, the tumor growth delay entry in data set [2] (SUGEN 5416 20 mg/kg systemic, T-ZC, p<0.0001 (FIG. 10)) was “significant tumor growth delay”. Besides, the “increase in tumor volume” value in data set [2] (SUGEN 5416 20 mg/kg systemic, T-ZC, control about 90% (FIG. 10)) is recorded as 40%. In addition, the “microvessel density (MVD) change” value in data set [2] (T-ZC, SUGEN 5416 20 mg/kg, p=0.11 (FIG. 11)) is given as “did not change”. Also, in data set [2] (T-ZC, SUGEN 5416 20 mg/kg, control about 15 (FIG. 11)), the “MVD per high power (200×) focal (HPF)” value was “about 13”. For the same compound, the “residual D-dimer retention” value in data set [2] (T-ZC, SUGEN 5416 systemic vs control (FIG. 12)) was “more residual D-dimer retention”; in data set [3] (F-ZC), “remained elevated”; in data set [3] (F-ZC, listed as SUGEN 5416) it was “increase in residual D-dimer retention”. The “gross appearance of chambers (influx of blood vessels)” value in data set [3] (F-ZC at harvest day 12, SU5416 vs controls (FIGS. 17A, 17B)) is listed as “distinctly paler color; also recorded: paler in color”. Moreover, the “collagen deposition (MT stain)” value in data set [3] (F-ZC granulation tissue, SU5416 20 mg/kg IP, p=0.0006, 20 mg/kg) is recorded as “distinctly decreased collagen deposition; also recorded: collagen was decreased”. For the same compound, the “reduction in microvessel density vs controls” value in data set [3] (F-ZC, SU5416 20 mg/kg IP, day 12, p=0.0009) is 10%. In addition, in data set [3] (F-ZC, SU5416 20 mg/kg IP, day 12, p=0.0076), the “reduction of granulation tissue (depth) vs controls” value was determined as 45%. The granulation tissue formation result in data set [3] (F-ZC, SU5416 20 mg/kg vs control, listed as SUGEN 5416) is listed as “inhibited granulation tissue formation”. Further, the “decrease in collagen deposition (semi-quantitative, MT)” value in data set [3] (F-ZC, SU5416 treated vs controls) is more than 70%. Further, the neovascularization result in data set [3] (F-ZC, SUGEN 5416 20 mg/kg vs control) is recorded as “inhibited neovascularization”. Besides, the “average depth of granulation tissue” value in data set [3] (F-ZC, SUGEN 5416 20 mg/kg, magnification 10×, control about 45 mm, p=0.0076) is “about 25 mm”. Besides, the “D-dimer levels in chambers” value in data set [3] (F-ZC, SUGEN 5416, after 10-12 days of implantation, control about 4,000 ng/ml) is “about 13,000 ng/ml”. In data set [3] (Table 1, F-ZC tissue lysates (pooled), SU5416, control 4100 ± 100), this compound registered a D-Dimer of 185 ± 20 ng/mL. The Granulation in data set [3] (Table 1, F-ZC, SU5416 20 mg/kg IP, day 12, ± standard error of mean, control 466.7 ± 51.9) amounted to 256.8 ± 42.9. In addition, in data set [3] (Table 1, F-ZC, SU5416, semi-quantitative scale of 0-4, ± SEM, control 1.75 ± 0.25), the Collagen is given as 0.5 ± 0.18. In addition, the Microvessel in data set [3] (Table 1, F-ZC, SU5416, ± SEM, control 28.17 ± 0.42) is listed as 26.25 ± 0.53. The “Difference, Microvessel” value in data set [3] (Table 1, SU5416 vs control) was 10%, p = 0.006,. Further, in data set [3] (setting [5]), the “Difference, D-Dimer” value is listed as 96%, n = 10. For the same compound, in data set [3] (Table 1, SU5416 vs control, p = 0.001), the “Difference, Collagen” value was 72%, p = 0.001,. For the same compound, in data set [3] (Table 1, SU5416 vs control, p = 0.006), the “Difference, Granulation” value was 45%, p = 0.006,. Further, the “reduction in active TGF β1 level” value in the data set on TGF β1 (F-ZC tissue, SU5416 20 mg/kg IP vs controls) was 90%. The “total TGF β1” value with TGF β1 (F-ZC tissue, SU5416 treated vs controls) is listed as “increased”. Moreover, the “Active TGF β1” value with TGF β1 (Table 1, F-ZC tissue lysates, SU5416, control 1.45 ± 0.1) is 0.11 ± 0.05 pg per mg of protein. In addition, the “Latent TGF β1” value with TGF β1 (Table 1, F-ZC tissue lysates, SU5416, control 7.72 ± 0.5) is on record as 11.85 ± 0.8 pg per mg of protein. In addition, the “Difference, Active TGF β1” value in the data set on TGF β1 (setting [5]) was 93%, n = 10. The “Difference, Latent TGF β1” value with TGF β1 (setting [5]) is 35%, n = 10.
For angiostatin, in data set [4] (1 μM angiostatin in chamber), the healing response entry is listed as “reduction in healing response”. Besides, the “gross appearance of chambers (influx of blood vessels)” value in data set [4] (1 μM angiostatin in chamber vs controls (FIGS. 20A, 20B)) was “paler in color”. The “granulation tissue formation (depth)” value in data set [4] (1 μM angiostatin in chamber vs controls (FIGS. 20C, 20D, 21)) is “granulation tissue in controls (FIG. 20C) is distinctly more than angiostatin treated chambers; also recorded: inhibited granulation tissue formation”.

The values are drawn from patent publication US20040043462A1, “Chamber for in vivo screening of angiogenesis and tumor growth modulating compounds” (priority 2003, published 2004).
